Measurements from US7074789B2, “Kinase inhibitors” (Amgen Inc., priority 1999, dated 2006).

Legend:
Format in all cases: biochemical
Tek = target: T1, Tek (Homo sapiens, UniProt Q02763); assay: Kinase inhibition assay (33P transfer), Tek; settings: for IC50: read-out: Tek-1
T1 construct: Kinases are expressed as either kinase domains or full length constructs; made in house
Method in brief: (§1)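 Each enzyme, purified to near homogeneity by affinity chromatography, was incubated with ATP carrying 33P and a substrate polymer fixed to the plate. Unbound label was removed with dilute phosphoric acid (0.5%) before adding scintillant and counting. Potency is given as the compound level cutting label uptake by 50%.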

AKT = target: T2, AKT (Homo sapiens, UniProt Q9Y243); assay: Kinase inhibition assay (33P transfer), AKT; settings: Table 2, kinase inhibition class; for IC50: read-out: AKT3-1
T2 construct: Kinases are expressed as either kinase domains or full length constructs; made in house
Method in brief: (§2)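 GST/His-tagged kinase (domain or full length; E. coli or baculovirus) + [33P]ATP on plates coated with poly(Glu,Tyr) 4:1 or poly(Arg,Ser) 3:1; incubate, wash 0.5% H3PO4, add scintillant, count.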

c-Met = target: T3, c-Met (Homo sapiens, UniProt P08581); assay: Kinase inhibition assay (33P transfer), c-Met; settings: Table 2, kinase inhibition class; for IC50: read-out: Met-1
T3 construct: Kinases are expressed as either kinase domains or full length constructs; made in house
Method in brief: as §1

PDGFRB = target: T4, PDGFRB (Homo sapiens, UniProt P09619); assay: Kinase inhibition assay (33P transfer), PDGFRB; settings: for IC50: read-out: PDGFRB-1
T4 construct: Kinases are expressed as either kinase domains or full length constructs; made in house
T4 sequence (P09619 33-1106, species assumed): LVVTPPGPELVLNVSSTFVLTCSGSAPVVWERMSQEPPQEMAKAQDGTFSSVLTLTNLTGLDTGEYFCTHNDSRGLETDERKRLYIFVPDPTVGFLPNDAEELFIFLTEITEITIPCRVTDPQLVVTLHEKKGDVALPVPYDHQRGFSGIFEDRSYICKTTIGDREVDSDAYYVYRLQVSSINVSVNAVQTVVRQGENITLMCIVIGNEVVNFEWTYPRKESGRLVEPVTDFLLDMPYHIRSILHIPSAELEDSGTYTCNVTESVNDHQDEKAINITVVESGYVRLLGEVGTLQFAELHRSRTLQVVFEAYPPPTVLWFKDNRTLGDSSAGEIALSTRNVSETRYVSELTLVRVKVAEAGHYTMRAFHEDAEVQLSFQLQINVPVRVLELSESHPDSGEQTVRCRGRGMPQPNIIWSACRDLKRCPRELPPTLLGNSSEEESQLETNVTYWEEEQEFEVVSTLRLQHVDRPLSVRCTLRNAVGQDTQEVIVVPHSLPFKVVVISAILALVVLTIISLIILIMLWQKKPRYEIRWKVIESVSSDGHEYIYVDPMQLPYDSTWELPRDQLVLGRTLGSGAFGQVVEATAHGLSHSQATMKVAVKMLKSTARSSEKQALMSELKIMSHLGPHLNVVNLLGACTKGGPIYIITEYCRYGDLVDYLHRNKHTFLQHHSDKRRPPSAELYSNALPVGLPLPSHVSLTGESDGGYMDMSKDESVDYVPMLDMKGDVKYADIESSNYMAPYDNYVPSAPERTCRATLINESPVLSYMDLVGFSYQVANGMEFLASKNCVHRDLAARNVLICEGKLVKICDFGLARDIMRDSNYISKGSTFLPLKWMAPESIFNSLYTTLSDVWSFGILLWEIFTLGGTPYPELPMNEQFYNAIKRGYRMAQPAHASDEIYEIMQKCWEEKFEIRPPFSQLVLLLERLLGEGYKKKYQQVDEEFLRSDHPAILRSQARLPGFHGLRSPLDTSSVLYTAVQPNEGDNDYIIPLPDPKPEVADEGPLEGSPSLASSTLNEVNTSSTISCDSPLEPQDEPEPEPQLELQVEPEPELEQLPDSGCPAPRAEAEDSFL

EGFR = target: T5, EGFR (Homo sapiens, UniProt P00533); assay: Kinase inhibition assay (33P transfer), EGFR; settings: Table 2, kinase inhibition class; for IC50: read-out: EGFR-1
T5 construct: Kinases are expressed as either kinase domains or full length constructs; made in house
Method in brief: as §1

Zap-70 = target: T6, Zap-70 (Homo sapiens, UniProt P43403); assay: Kinase inhibition assay (33P transfer), Zap-70; settings: for IC50: read-out: Zap-1
T6 construct: Kinases are expressed as either kinase domains or full length constructs; made in house
T6 sequence (P43403 1-619): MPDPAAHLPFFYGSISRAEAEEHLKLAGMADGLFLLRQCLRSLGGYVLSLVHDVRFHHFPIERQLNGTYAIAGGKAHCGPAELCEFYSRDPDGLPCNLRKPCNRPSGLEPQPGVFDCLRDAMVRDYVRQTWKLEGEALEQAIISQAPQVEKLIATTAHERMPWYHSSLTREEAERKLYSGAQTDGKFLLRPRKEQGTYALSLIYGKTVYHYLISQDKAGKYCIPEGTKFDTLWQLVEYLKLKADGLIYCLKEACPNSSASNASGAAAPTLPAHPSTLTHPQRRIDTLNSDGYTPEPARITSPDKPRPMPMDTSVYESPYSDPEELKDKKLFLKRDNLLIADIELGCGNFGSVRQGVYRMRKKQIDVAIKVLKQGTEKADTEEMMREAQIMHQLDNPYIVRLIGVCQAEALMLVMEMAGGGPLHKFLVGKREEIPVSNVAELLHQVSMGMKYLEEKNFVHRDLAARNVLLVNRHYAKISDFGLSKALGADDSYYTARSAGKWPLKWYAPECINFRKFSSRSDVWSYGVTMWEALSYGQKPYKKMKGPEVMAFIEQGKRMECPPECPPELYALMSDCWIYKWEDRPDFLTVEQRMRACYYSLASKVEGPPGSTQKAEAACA
Method in brief: as §2

Kdr = target: T7, Kdr (Homo sapiens, UniProt P35968); assay: Kinase inhibition assay (33P transfer), Kdr; settings: for IC50: read-out: KDR-1
T7 construct: Kinases are expressed as either kinase domains or full length constructs; made in house
T7 sequence (P35968 20-1356, species assumed): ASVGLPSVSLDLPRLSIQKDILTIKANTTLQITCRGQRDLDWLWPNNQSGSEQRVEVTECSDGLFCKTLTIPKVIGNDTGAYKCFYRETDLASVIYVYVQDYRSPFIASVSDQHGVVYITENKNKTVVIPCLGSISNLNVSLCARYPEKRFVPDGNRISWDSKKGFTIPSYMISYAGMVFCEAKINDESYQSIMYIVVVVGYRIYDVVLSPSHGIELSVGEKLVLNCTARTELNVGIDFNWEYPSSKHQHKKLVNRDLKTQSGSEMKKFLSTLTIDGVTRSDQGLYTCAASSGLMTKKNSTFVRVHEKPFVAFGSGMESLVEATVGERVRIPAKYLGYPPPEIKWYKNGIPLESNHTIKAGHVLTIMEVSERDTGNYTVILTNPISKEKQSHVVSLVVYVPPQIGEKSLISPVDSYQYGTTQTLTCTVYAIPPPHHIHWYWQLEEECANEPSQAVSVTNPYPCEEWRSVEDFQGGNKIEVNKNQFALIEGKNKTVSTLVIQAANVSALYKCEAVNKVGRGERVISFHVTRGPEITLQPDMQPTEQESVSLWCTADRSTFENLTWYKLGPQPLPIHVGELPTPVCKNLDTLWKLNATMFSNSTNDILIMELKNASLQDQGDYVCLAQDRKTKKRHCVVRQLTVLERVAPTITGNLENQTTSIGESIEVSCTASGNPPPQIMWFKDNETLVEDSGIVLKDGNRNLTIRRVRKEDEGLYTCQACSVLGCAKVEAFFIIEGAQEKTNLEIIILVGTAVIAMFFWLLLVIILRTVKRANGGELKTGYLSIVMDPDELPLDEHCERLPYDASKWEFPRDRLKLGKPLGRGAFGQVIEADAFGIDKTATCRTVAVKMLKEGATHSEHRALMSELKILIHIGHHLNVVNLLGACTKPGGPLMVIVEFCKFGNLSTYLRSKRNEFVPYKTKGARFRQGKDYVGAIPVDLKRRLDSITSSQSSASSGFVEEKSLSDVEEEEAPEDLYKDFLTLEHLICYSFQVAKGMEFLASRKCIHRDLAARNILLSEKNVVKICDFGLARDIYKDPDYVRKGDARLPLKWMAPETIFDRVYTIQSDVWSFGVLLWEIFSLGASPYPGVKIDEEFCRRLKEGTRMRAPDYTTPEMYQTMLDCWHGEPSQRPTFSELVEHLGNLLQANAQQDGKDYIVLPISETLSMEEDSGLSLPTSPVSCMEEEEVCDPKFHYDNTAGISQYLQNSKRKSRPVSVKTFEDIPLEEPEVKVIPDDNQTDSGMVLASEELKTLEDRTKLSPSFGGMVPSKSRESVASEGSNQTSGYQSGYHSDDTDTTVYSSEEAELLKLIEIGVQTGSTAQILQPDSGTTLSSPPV
Method in brief: as §2

IGFR-1 = target: T8, IGFR-1 (Homo sapiens, UniProt P08069); assay: Kinase inhibition assay, IGFR-1 (Table 2); settings: Table 2, kinase inhibition class
T8 construct: Kinases are expressed as either kinase domains or full length constructs; made in house
T8 sequence (P08069 31-1367): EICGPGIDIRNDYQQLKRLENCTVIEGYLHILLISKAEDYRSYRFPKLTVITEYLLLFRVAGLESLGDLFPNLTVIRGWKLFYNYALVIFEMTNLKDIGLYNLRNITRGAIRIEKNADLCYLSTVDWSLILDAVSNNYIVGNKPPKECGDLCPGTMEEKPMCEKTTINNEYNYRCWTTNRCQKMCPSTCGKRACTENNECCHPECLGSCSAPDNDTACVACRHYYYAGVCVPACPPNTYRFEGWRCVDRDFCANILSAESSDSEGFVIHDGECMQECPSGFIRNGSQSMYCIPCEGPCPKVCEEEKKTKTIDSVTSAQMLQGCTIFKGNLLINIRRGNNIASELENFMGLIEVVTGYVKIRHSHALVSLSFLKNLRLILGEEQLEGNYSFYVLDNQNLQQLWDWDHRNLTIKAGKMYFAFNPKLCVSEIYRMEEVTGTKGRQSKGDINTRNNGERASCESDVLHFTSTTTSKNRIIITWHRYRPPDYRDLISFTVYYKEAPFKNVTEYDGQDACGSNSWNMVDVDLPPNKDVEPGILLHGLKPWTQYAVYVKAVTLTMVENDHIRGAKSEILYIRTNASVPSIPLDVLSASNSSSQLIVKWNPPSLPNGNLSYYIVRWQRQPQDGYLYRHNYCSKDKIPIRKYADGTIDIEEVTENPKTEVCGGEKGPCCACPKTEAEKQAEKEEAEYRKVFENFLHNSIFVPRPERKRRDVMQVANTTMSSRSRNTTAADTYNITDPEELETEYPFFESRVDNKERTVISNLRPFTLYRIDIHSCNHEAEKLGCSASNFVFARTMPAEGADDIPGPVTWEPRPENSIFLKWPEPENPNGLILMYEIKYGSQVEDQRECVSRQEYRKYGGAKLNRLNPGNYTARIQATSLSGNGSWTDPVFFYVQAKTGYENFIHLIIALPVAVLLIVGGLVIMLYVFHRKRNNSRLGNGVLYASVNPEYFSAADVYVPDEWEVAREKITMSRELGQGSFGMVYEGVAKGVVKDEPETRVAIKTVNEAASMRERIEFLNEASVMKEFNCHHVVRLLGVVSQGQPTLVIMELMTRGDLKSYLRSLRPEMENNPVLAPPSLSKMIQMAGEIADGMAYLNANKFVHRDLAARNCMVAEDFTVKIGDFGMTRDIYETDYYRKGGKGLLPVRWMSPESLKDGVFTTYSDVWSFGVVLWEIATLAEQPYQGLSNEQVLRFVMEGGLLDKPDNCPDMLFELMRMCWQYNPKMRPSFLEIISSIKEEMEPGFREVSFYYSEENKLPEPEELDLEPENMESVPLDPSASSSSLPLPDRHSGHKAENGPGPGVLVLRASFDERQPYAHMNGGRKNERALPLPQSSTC

Itk = target: T9, Itk (Homo sapiens, UniProt Q08881); assay: Kinase inhibition assay (33P transfer), Itk; settings: for IC50: read-out: Itk-1
T9 construct: Kinases are expressed as either kinase domains or full length constructs; made in house
T9 sequence (Q08881 1-620): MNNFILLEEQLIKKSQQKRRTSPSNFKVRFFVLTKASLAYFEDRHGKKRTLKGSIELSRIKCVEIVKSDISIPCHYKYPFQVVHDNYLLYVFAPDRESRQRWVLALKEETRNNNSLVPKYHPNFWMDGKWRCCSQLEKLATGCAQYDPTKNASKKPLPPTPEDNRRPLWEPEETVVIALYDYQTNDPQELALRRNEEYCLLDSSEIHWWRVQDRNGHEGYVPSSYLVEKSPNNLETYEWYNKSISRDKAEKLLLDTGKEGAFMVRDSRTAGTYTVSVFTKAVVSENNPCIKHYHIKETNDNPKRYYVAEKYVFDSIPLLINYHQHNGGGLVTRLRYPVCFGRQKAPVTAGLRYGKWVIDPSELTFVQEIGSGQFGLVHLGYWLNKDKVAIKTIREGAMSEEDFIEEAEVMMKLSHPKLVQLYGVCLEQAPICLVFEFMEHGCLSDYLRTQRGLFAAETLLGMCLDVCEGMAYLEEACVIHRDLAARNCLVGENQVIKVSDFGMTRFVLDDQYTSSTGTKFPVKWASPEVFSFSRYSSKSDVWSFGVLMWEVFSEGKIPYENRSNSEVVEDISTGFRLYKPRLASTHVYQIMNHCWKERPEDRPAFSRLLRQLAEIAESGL
Method in brief: as §1

Lck = target: T10, Lck (Homo sapiens, UniProt P06239); assay: Kinase inhibition assay (33P transfer), Lck; settings: for IC50: read-out: Lck-1
T10 construct: Kinases are expressed as either kinase domains or full length constructs; made in house
Method in brief: as §2

ErbB2 = target: T11, ErbB2 (Homo sapiens, UniProt P04626); assay: Kinase inhibition assay (33P transfer), ErbB2; settings: for IC50: read-out: ErbB2-2
T11 construct: Kinases are expressed as either kinase domains or full length constructs; made in house
Method in brief: as §1

T1 sequence (Q02763 23-1124, species assumed): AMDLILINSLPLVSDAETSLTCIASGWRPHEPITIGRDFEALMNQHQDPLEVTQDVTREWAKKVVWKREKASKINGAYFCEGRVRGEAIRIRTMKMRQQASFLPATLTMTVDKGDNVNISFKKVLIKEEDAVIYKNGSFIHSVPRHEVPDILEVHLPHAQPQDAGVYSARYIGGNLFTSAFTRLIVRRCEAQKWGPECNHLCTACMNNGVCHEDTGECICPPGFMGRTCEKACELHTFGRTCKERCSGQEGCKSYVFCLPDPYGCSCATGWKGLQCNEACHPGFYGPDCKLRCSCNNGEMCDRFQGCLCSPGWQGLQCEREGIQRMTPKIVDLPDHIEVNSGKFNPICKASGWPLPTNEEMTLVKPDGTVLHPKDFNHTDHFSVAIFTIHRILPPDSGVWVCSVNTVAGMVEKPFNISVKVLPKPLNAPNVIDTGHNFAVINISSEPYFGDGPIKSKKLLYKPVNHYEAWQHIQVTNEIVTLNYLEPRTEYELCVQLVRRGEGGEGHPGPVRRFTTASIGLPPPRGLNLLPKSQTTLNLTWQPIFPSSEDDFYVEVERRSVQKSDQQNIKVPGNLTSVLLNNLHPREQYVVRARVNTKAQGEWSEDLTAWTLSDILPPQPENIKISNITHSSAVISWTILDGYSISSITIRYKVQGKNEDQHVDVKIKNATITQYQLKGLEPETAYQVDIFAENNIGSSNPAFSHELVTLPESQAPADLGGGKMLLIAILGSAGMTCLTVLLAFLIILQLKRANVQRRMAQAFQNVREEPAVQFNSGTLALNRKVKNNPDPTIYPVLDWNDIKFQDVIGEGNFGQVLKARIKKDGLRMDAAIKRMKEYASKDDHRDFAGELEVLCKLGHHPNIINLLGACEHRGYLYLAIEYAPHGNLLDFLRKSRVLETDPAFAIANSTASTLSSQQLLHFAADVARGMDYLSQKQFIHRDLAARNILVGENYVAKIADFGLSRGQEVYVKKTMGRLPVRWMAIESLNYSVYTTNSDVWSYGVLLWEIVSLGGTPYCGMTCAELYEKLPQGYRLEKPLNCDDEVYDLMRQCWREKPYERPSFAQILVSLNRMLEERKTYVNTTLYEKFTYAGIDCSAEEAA

IC50 (Tek)	IC50 (AKT)	IC50 (c-Met)	IC50 (PDGFRB)	IC50 (EGFR)	IC50 (Zap-70)	IC50 (Kdr)	IC50 (IGFR-1)	IC50 (Itk)	IC50 (Lck)	IC50 (ErbB2)	SMILES	other results
1.21 to 7.24 µM	7.24 to 10.6 µM	7.24 to 10.6 µM	7.24 to 10.6 µM	1.21 to 7.24 µM	1.21 to 7.24 µM	1.21 to 7.24 µM	1.21 to 7.24 µM	7.24 to 10.6 µM	7.24 to 10.6 µM	1.21 to 7.24 µM	CCc1ccc(Nc2ncnc(-n3c(N)nc4ccccc43)n2)cc1 [Compound 657]	
> 10.1 µM	> 10.1 µM	> 10.1 µM	> 10.1 µM	> 10.1 µM	> 10.1 µM	> 10.1 µM	> 10.1 µM	7.87 to 10.1 µM	7.87 to 10.1 µM	> 10.1 µM	CCN(CC)C(=O)C1CCCN(c2ncnc(Nc3cc(OC)c(OC)c(OC)c3)n2)C1 (stereo not drawn) [Compound 615]	
> 10.7 µM	> 10.7 µM	> 10.7 µM	> 10.7 µM	> 10.7 µM	> 10.7 µM	> 10.7 µM	0.954 to 5.72 µM	0.954 to 5.72 µM	0.954 to 5.72 µM	> 10.7 µM	COc1cc(Nc2ncnc(-n3nc(-c4ccccc4)cc3N)n2)cc(OC)c1OC [Compound 520]	
1.2 to 7.2 µM	> 13.5 µM	7.2 to 10.5 µM	1.2 to 7.2 µM	7.2 to 10.5 µM	> 13.5 µM	< 1.2 µM	< 1.2 µM	1.2 to 7.2 µM	1.2 to 7.2 µM	1.2 to 7.2 µM	COc1cccc(Nc2ncnc(-n3c(N)nc4ccccc43)n2)c1 [Compound 654]	
1.03 to 6.2 µM	> 11.6 µM	< 1.03 µM	1.03 to 6.2 µM	< 1.03 µM	> 11.6 µM	< 1.03 µM	< 1.03 µM	1.03 to 6.2 µM	1.03 to 6.2 µM	1.03 to 6.2 µM	O=C(O)Cc1cccc(Nc2ncnc(Nc3cc(-c4ccccc4)n[nH]3)n2)c1 [Compound 981]	
> 9.42 µM	> 9.42 µM	< 0.838 µM	> 9.42 µM	0.838 to 5.03 µM	> 9.42 µM	> 9.42 µM	< 0.838 µM	7.33 to 9.42 µM	< 0.838 µM	7.33 to 9.42 µM	COC(=O)c1ccc(-c2cc(Nc3ncnc(Nc4cc(OC)c(OC)c(OC)c4)n3)[nH]n2)cc1 [Compound 523]	
0.863 to 5.18 µM	> 9.71 µM	< 0.863 µM	0.863 to 5.18 µM	0.863 to 5.18 µM	> 9.71 µM	0.863 to 5.18 µM	< 0.863 µM	7.55 to 9.71 µM	< 0.863 µM	0.863 to 5.18 µM	COc1cc(Nc2ncnc(Nc3cc(-c4ccc(C(=O)O)cc4)n[nH]3)n2)cc(OC)c1OC [Compound 1004]	
> 11.6 µM	> 11.6 µM	< 1.03 µM	> 11.6 µM	1.03 to 6.16 µM	> 11.6 µM	< 1.03 µM	< 1.03 µM	> 11.6 µM	< 1.03 µM	1.03 to 6.16 µM	COc1ccc(Nc2ncnc(Nc3cc(-c4ccccc4)n[nH]3)n2)cc1OC [Compound 977]	
											COc1cc(Nc2ncnc(Nc3ccc(O)c4ncccc34)n2)cc(OC)c1OC [Compound 699]	Tek-1 (Tek): D (D>3.5 and <4.5 ug/mL); AKT3-1 (AKT): E (E>4.5 ug/mL); Met-1 (c-Met): E (E>4.5 ug/mL); PDGFRB-1 (PDGFRB): A (A<0.4 ug/mL); EGFR-1 (EGFR): B (B>0.4 and <2.4 ug/mL); Zap-1 (Zap-70): E (E>4.5 ug/mL); KDR-1 (Kdr): B (B>0.4 and <2.4 ug/mL); IGFR-1 (IGFR-1): B (B>0.4 and <2.4 ug/mL); Itk-1 (Itk): B (B>0.4 and <2.4 ug/mL); Lck-1 (Lck): A (A<0.4 ug/mL); ErbB2-2 (ErbB2): A (A<0.4 ug/mL)
